BindingDB's records for doi:10.1038/sj.bjp.0706048 (University of Nottingham, 2005)
Where a name gives a salt, the structure may show the parent alone.

Experiments:
[1] = target: Beta-3 adrenergic receptor (Homo sapiens, UniProt P13945); assay: 3H-CGP 12177 Whole Cell Binding Assay
Source text: (§1) The whole cell-binding studies were undertaken in CHO cell lines stably expressing each beta-adrenoceptor subtype.

[2] = target: Beta-1 adrenergic receptor (Homo sapiens, UniProt P08588); assay: 3H-CGP 12177 Whole Cell Binding Assay; conditions: pH 7.4; 37 °C
Chain of Beta-1 adrenergic receptor (P08588 whole entry): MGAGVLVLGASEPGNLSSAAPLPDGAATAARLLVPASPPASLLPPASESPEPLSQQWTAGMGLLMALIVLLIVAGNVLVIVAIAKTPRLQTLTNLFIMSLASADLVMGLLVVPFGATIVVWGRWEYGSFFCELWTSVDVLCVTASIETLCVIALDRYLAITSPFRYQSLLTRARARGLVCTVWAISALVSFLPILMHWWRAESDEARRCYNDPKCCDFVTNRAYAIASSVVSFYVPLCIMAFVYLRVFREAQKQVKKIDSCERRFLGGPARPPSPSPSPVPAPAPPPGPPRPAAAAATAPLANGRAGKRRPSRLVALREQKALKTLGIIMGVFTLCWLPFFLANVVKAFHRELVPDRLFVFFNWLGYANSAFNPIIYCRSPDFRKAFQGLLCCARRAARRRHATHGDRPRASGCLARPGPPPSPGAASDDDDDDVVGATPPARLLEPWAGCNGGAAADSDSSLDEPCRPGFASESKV
Source text: as §1

Chain of Beta-3 adrenergic receptor (P13945 whole entry): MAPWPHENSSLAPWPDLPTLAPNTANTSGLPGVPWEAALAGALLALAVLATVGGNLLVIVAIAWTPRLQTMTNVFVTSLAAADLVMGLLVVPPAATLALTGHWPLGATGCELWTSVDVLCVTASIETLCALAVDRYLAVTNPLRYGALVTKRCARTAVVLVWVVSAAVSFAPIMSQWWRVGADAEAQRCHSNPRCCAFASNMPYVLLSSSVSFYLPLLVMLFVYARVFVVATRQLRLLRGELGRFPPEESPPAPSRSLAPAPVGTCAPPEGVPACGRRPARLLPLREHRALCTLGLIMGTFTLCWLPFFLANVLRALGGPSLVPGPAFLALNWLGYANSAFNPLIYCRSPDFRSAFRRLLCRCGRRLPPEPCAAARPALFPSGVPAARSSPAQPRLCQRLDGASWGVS

SMILES	Kd [1]	Kd [2]
CC(C)NCC(O)c1ccc2ccccc2c1 (stereo unspecified) [1-(naphthalen-2-yl)-2-(propan-2-ylamino)ethan-1-ol]	1290 nM	363 nM
CC(C)(C)NCC(O)COc1cccc2[nH]c(=O)[nH]c12 (stereo unspecified) [4-[3-(tert-butylamino)-2-hydroxypropoxy]-2,3-dihydro-1H-1,3-benzodiazol-2-one hydrochloride]	102 nM	
CC(C)NC[C@H](O)COc1ccc(CCOCC2CC2)cc1 [[(2S)-3-{4-[2-(cyclopropylmethoxy)ethyl]phenoxy}-2-hydroxypropyl](propan-2-yl)amine]	1070 nM	
OCc1cc(C(O)CNCCCCCCOCCCCc2ccccc2)ccc1O (stereo unspecified) [salmeterol xinafoate]	1860 nM	

The remaining lines, values ahead:

Kd [1]	Kd [2]	SMILES
158 nM		CC(C)(C)NC[C@H](O)COc1nsnc1N1CCOCC1 (racemic) [tert-butyl(2-hydroxy-3-{[4-(morpholin-4-yl)-1,2,5-thiadiazol-3-yl]oxy}propyl)amine]
234 nM		O=C(O)COc1ccc(OCCNC[C@@H](O)COc2ccccc2)cc1 [2-[4-(2-{[(2R)-2-hydroxy-3-phenoxypropyl]amino}ethoxy)phenoxy]acetic acid]
661 nM	59 nM	CC(C)(C)NCC(O)COc1cccc2c1C[C@H](O)[C@H](O)C2 (stereo partly specified) [Corgard]
91 nM	3.1 nM	Cc1ccc(Cl)c(OCC(O)CNC(C)(C)C)c1 (stereo unspecified) [tert-butyl[3-(2-chloro-5-methylphenoxy)-2-hydroxypropyl]amine]
